Experimental data reported in patent US10072006B2 (MUTABILIS, priority 2015, dated 2018).
Structures can show the parent of a compound that is named as a salt.

What was measured:
[1] = system: K. pneumoniae 6299 (TEM-1, SHV-11, OXA-163); test: MIC of compounds and synergy with ceftazidime (broth microdilution); assay type: cell-based; conditions: strain 6299 (K. pneumoniae)
Experimental: (§1) Briefly, compounds alone according to the invention were prepared in DMSO and spotted (2 μL each) on sterile polystyrene plates (Corning, 3788). […] Microplates were incubated for 16-20 h at 35° C. in ambient air. The MIC of the compounds was defined as the lowest concentration of said compounds that prevented bacterial growth as read by visual inspection.

[2] = system: P. aeruginosa UFR59 (IMP-29); test: as above; assay type: cell-based; conditions: strain UFR59 (P. aeruginosa)
Experimental: as §1

[3] = system: P. aeruginosa CIP107051 (TEM-24); test: as above; assay type: cell-based; conditions: strain CIP107051 (P. aeruginosa)
Experimental: as §1

[4] = system: K. pneumoniae UFR24 (TEM-1, SHV-2, SHV-11, OXA-1, OXA-48, OXA-47); test: as above; assay type: cell-based; conditions: strain UFR24 (K. pneumoniae)
Experimental: as §1

[5] = system: K. pneumoniae BAA-1898 (TEM-1, SHV-11, SHV-12, KPC-2); test: as above; assay type: cell-based; conditions: strain BAA-1898 (K. pneumoniae)
Experimental: as §1

[6] = system: E. coli UFR32 (TEM-1, VEB-1, OXA-10); test: as above; assay type: cell-based; conditions: strain UFR32 (E. coli)
Experimental: as §1

[7] = system: P. aeruginosa CIP105250 (OXA-15); test: as above; assay type: cell-based; conditions: strain CIP105250 (P. aeruginosa)
Experimental: as §1

[8] = system: E. coli UFR74 (SHV-1, DHA-1); test: as above; assay type: cell-based; conditions: strain UFR74 (E. coli)
Experimental: as §1

[9] = system: K. pneumoniae UFR77 (CMY-2); test: as above; assay type: cell-based; conditions: strain UFR77 (K. pneumoniae)
Experimental: as §1

[10] = system: E. coli 131119 (TEM-1, OXA-48); test: as above; assay type: cell-based; conditions: strain 131119 (E. coli)
Experimental: as §1

[11] = system: E. coli UFR18 (CTX-M-15, OXA-204); test: as above; assay type: cell-based; conditions: strain UFR18 (E. coli)
Experimental: as §1

[12] = system: E. coli UFR61O (TEM-1, KPC-2); test: as above; assay type: cell-based
Experimental: as §1

E. coli RGN238 (OXA-1) = test: as above; assay type: cell-based; conditions: strain RGN238 (E. coli)
Experimental: as §1

[13] = system: E. cloacae UFR38 (CTX-M-15, NDM-1); test: as above; assay type: cell-based; conditions: strain UFR38 (E. cloacae)
Experimental: as §1

[14] = system: C. murliniae 210102 (VIM-4); test: as above; assay type: cell-based; conditions: strain 210102 (C. murliniae)
Experimental: as §1

[15] = system: P. aeruginosa UFR35 (OXA-23); test: as above; assay type: cell-based; conditions: strain UFR35 (P. aeruginosa)
Experimental: as §1

[16] = system: P. aeruginosa UFR48 (VIM-2); test: as above; assay type: cell-based; conditions: strain UFR48 (P. aeruginosa)
Experimental: as §1

[17] = system: E. cloacae P99 (Derepressed ampC); test: as above; assay type: cell-based; conditions: strain P99 (E. cloacae)
Experimental: as §1

[18] = system: P. aeruginosa UFR47 (VIM-1); test: as above; assay type: cell-based; conditions: strain UFR47 (P. aeruginosa)
Experimental: as §1

[19] = system: E. coli UFR52 (TEM-1, SHV-12, IMP-8); test: as above; assay type: cell-based; conditions: strain UFR52 (E. coli)
Experimental: as §1

TEM-1 = biological target: T1, TEM-1 (Escherichia coli, UniProt P62593); test: β-lactamase inhibitory activity, determination of IC50 (nitrocefin hydrolysis); assay type: biochemical; conditions: class (A), 30 min pre-incubation
T1 construct: made in house; host or cells: E. coli
T1 sequence (P62593 24-286 limits assumed): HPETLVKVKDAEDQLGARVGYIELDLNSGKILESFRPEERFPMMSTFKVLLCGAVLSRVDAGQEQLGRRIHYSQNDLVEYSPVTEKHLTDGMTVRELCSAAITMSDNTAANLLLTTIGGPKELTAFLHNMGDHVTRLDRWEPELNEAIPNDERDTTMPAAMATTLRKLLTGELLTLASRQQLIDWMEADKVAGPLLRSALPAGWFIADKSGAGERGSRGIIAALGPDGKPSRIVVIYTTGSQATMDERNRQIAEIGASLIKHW

[20] = Klebsiella pneumoniae, 18 h, read-out: MIC compounds of the invention alone
[21] = MIC of ceftazidime with compound fixed at 4 μg/mL
[22] = Pseudomonas aeruginosa, 18 h, read-out: MIC compounds of the invention alone
[23] = Escherichia coli, 18 h, read-out: MIC compounds of the invention alone
[24] = Enterobacter cloacae, 18 h, read-out: MIC compounds of the invention alone

## NC[C@@H]1C=C(c2cnco2)[C@@H]2CN1C(=O)N2OS(=O)(=O)O (relative stereo) [Example 1, Sodium and 2,2,2-trifluoroacetate [trans-2-(azaniumylmethyl)-4-oxazol-5-yl-7-oxo-1,6-diazabicyclo[3.2.1]oct-3-en-6-yl] sulfate]
[1]; [20]
  MIC: > 32 µg/mL
[1]; [21]
  MIC, combination of CAZ and compounds of the invention: 0.5 µg/mL
[2]; [21]
  MIC, combination of CAZ and compounds of the invention: <0.25 µg/mL
[2]; [22]
  MIC: 8 µg/mL
[3]; [21]
  MIC, combination of CAZ and compounds of the invention: <0.25 µg/mL
[3]; [22]
  MIC: 2 µg/mL
[4]; [20]
  MIC: > 32 µg/mL
[4]; [21]
  MIC, combination of CAZ and compounds of the invention: 4 µg/mL
[5]; Klebsiella pneumoniae, BAA1898, read-out: MIC compounds of the invention alone
  MIC: > 32 µg/mL
[5]; [21]
  MIC, combination of CAZ and compounds of the invention: 0.5 µg/mL
[6]; [23]
  MIC: 0.031 µg/mL
[6]; [21]
  MIC, combination of CAZ and compounds of the invention: <0.25 µg/mL
[7]; [21]
  MIC, combination of CAZ and compounds of the invention: ≤0.125 µg/mL
[7]; [22]
  MIC: > 32 µg/mL
[8]; [23]
  MIC: > 32 µg/mL
[8]; [21]
  MIC, combination of CAZ and compounds of the invention: 4 µg/mL
[9]; [20]
  MIC: > 32 µg/mL
[9]; [21]
  MIC, combination of CAZ and compounds of the invention: 2 µg/mL
[10]; [23]
  MIC: 32 µg/mL
[10]; [21]
  MIC, combination of CAZ and compounds of the invention: <0.25 µg/mL
[11]; [23]
  MIC: 0.031 µg/mL
[11]; [21]
  MIC, combination of CAZ and compounds of the invention: <0.25 µg/mL
[12]; Escherichia coli, strain UFR61O (E. coli), read-out: MIC compounds of the invention alone
  MIC: 0.031 µg/mL
[12]; MIC of ceftazidime with compound fixed at 4 μg/mL, strain UFR610 (E. coli)
  MIC, combination of CAZ and compounds of the invention: <0.25 µg/mL
E. coli RGN238 (OXA-1); [23]
  MIC: > 32 µg/mL
E. coli RGN238 (OXA-1); [21]
  MIC, combination of CAZ and compounds of the invention: ≤0.125 µg/mL
[13]; [24]
  MIC: ≤ 0.016 µg/mL
[13]; [21]
  MIC, combination of CAZ and compounds of the invention: <0.25 µg/mL
[14]; 18 h, read-out: MIC compounds of the invention alone
  MIC: > 32 µg/mL
[14]; [21]
  MIC, combination of CAZ and compounds of the invention: 0.5 µg/mL
[15]; [21]
  MIC, combination of CAZ and compounds of the invention: <0.25 µg/mL
[15]; [22]
  MIC: 1 µg/mL
[16]; [21]
  MIC, combination of CAZ and compounds of the invention: <0.25 µg/mL
[16]; [22]
  MIC: 4 µg/mL
[17]; [24]
  MIC: 0.031 µg/mL
[17]; [21]
  MIC, combination of CAZ and compounds of the invention: <0.25 µg/mL
[18]; [21]
  MIC, combination of CAZ and compounds of the invention: <0.25 µg/mL
[18]; [22]
  MIC: 2 µg/mL
[19]; [23]
  MIC: 2 µg/mL
[19]; [21]
  MIC, combination of CAZ and compounds of the invention: <0.25 µg/mL
TEM-1
  IC50: 3.2 nM
